From ChEMBL document CHEMBL3525941, “Comparison of in vitro metabolism of ticlopidine by human cytochrome P450 2B6 and rabbit cytochrome P450 2B4” (Drug Metab Dispos, 2011) come the findings set out here.

The target in series [1] is T1, Cytochrome P450 2B6 (Homo sapiens, UniProt P20813).
T1 sequence (P20813 whole entry): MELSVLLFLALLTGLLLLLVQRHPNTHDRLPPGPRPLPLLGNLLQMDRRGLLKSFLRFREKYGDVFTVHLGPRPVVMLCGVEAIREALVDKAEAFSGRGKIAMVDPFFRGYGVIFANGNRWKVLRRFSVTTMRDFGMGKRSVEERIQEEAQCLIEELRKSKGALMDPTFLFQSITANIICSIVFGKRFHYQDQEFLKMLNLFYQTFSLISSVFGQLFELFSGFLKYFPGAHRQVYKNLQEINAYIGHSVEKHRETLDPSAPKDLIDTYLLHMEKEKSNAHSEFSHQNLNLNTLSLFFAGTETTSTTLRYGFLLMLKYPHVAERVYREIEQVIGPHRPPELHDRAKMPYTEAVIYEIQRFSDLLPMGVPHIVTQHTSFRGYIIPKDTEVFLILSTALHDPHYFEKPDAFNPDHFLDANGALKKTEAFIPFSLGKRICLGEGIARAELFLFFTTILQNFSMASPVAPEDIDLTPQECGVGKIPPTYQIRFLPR
Put plainly: Activity of human CYP2B6 assessed as observed rate constant for enzyme-mediated compound formation treated with 1 uM ticlopidine by HPLC-MS analysis in presence of NADPH. The class given is ADME.

In series [2] the target is T2, Cytochrome P450 2B4 (Oryctolagus cuniculus, UniProt P00178).
T2 sequence (P00178 whole entry): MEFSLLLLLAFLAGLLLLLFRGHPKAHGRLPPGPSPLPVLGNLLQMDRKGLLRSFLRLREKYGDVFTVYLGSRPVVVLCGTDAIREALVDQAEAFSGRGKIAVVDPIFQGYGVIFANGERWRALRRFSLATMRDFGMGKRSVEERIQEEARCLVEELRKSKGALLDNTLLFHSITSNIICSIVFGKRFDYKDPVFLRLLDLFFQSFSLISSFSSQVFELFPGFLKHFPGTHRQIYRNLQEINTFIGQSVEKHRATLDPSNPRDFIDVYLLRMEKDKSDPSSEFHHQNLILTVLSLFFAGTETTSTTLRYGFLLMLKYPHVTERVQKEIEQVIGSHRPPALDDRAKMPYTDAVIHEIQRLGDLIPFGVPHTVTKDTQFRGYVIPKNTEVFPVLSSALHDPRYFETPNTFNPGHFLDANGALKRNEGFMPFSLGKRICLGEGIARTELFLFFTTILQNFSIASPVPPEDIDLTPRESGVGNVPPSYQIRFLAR
Nature of the series: Activity of rabbit CYP2B4 assessed as observed rate constant for enzyme-mediated compound formation treated with 1 uM ticlopidine by HPLC-MS analysis in presence of NADPH. Format: ADME.

Series [3] addresses T1, Cytochrome P450 2B6. Put plainly: Activity of human CYP2B6 assessed as enzyme-mediated compound formation treated with 10 uM ticlopidine for 60 mins by HPLC-MS analysis in presence of NADPH. The class given is ADME. The note with it: 1 h.
Series [4] in a line: Retention time of the compound by HPLC-MS analysis. Format: physicochemical.
Series [5] has as its target T2, Cytochrome P450 2B4. Put plainly: Activity of rabbit CYP2B4 assessed as enzyme-mediated compound formation treated with 10 uM ticlopidine for 60 mins by HPLC-MS analysis in presence of NADPH. The class given is ADME. The note with it: 1 h.
Series [6] addresses T1, Cytochrome P450 2B6. Put plainly: Activity of recombinant full-length CYP2B6 (unknown origin) expressed in baculovirus-infected insect cells assessed as enzyme-mediated compound formation treated with 10 uM ticlopidine for 60 mins by HPLC-MS analysis in presence of NADPH. Format: ADME. The note with it: 1 h.
The test system of the next series is Liver microsome. Nature of the series: Drug level in human liver microsomes assessed as compound formation treated with 10 uM ticlopidine for 60 mins by HPLC-MS analysis in presence of NADPH. Format: ADME. The note with it: 1 h.
Another series concerns the target T3, CYP2B6 (Homo sapiens, UniProt P20813).
T3 sequence (P20813 whole entry): T1 sequence (P20813 whole entry)
Nature of the series: Inhibition of human CYP2B6 assessed as inactivation rate constant at 100 uM for 2 mins by HPLC-MS analysis in presence of NADPH. Format: ADME.

A further series deals with T4, CYP2B4 (Oryctolagus cuniculus, UniProt P00178).
T4 sequence (P00178 whole entry): T2 sequence (P00178 whole entry)
Put plainly: Inhibition of rabbit CYP2B4 assessed as inactivation rate constant at 100 uM for 2 mins by HPLC-MS analysis in presence of NADPH. The class given is ADME.

`OC1CN(Cc2ccccc2Cl)Cc2ccsc21` (stereo not given): the figures for the kobs at Cytochrome P450 2B6 [1] and at Cytochrome P450 2B4 [2] were 0.48 min⁻¹ and 0.49 min⁻¹, respectively. Moreover, the Compound recovery result on Cytochrome P450 2B6 [3], at Cytochrome P450 2B4 [5], on Cytochrome P450 2B6 [6] and in the series with Liver microsome was “metabolite_detected” each time. In series [4], this compound registered a Retention_time of 4.56 min.

`O=C1C=C2CN(Cc3ccccc3Cl)CCC2S1` (stereo not given): the kobs at Cytochrome P450 2B6 [1] was 0.5 min⁻¹; at Cytochrome P450 2B4 [2], 0.48 min⁻¹. For the same compound, the Compound recovery entry at Cytochrome P450 2B6 [3], at Cytochrome P450 2B4 [5], on Cytochrome P450 2B6 [6] and in the series with Liver microsome was “metabolite_detected” in each case. The Retention_time in series [4] stood at 4.9 min.

Turning to `Clc1ccccc1C[N+]1=Cc2ccsc2CC1`, the Compound recovery result on Cytochrome P450 2B6 [3], on Cytochrome P450 2B4 [5], on Cytochrome P450 2B6 [6] and in the series on Liver microsome was “metabolite_detected” each time.

Regarding `Clc1ccccc1C[n+]1ccc2sccc2c1`, the kobs at Cytochrome P450 2B4 [2] was 0.56 min⁻¹. Moreover, the Compound recovery entry on Cytochrome P450 2B6 [3], on Cytochrome P450 2B4 [5], on Cytochrome P450 2B6 [6] and in the series with Liver microsome was “metabolite_detected” in each case.

Take `[O-][N+]1(Cc2ccccc2Cl)CCc2sccc2C1` (stereo not given): the kobs is 0.61 min⁻¹ on Cytochrome P450 2B6 [1] and 0.66 min⁻¹ on Cytochrome P450 2B4 [2]. Also, the Compound recovery result on Cytochrome P450 2B6 [3], at Cytochrome P450 2B4 [5], at Cytochrome P450 2B6 [6] and with Liver microsome was “metabolite_detected” each time. Further, the Retention_time in [4] worked out at 8 min.

`CCOc1ccc2c(C(F)(F)F)cc(=O)oc2c1`: the kinact at 2 min, 100 µM at CYP2B6 was 0.00167 s⁻¹; at CYP2B4 it was 0.000333 s⁻¹.

In the case of `CC(NC(C)(C)C)C(=O)c1cccc(Cl)c1` (stereo not given) [BUPROPION], the kinact at 2 min, 100 µM is 0.00533 s⁻¹ on CYP2B6 and 0.00133 s⁻¹ on CYP2B4. Moreover, the Retention_time in series [4] was found to be 9.7 min.
